Results published in publication PMC6751662, “Pharmacological and functional similarities of the human neuropeptide Y system in C. elegans challenges phylogenetic views on the FLP/NPR system” (Cell Communication and Signaling : CCS, 2019).

Assays:
[1] = target: T1, NPR-4b (Caenorhabditis elegans, UniProt A0A078BTK0); test: IP accumulation assay, chimeric GαΔ6qi4myr, NPR-4b; type: cell-based, C. elegans; conditions: 1 h, HBSS + 20 mM LiCl, HEK293 receptor + GαΔ6qi4myr, HTRF IP-One
T1 sequence (A0A078BTK0 1-376): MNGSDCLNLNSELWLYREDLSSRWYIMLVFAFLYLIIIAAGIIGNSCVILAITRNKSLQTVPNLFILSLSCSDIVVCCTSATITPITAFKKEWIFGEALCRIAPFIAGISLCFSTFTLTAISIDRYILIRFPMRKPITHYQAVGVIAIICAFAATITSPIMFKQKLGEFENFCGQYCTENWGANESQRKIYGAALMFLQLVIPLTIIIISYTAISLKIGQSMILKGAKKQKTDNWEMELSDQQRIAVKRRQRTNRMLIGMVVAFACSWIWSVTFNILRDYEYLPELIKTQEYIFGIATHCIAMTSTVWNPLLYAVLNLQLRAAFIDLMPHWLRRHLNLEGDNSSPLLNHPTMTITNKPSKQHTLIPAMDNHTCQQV
Method: (§1) For measuring IP accumulation, HEK293 cells grown to 70–80% confluency in 6-well plates were transiently co-transfected using Metafectene Pro (2.5 μl/μg DNA; Biontex) with plasmids containing receptor and/or mock (empty pcDNA3.1) (for endogenous Gq-coupling) using 4 μg total DNA in a ratio of 3:1 following the manufacturer’s instructions. For testing Gα16- and GαΔ6qi4myr-coupling, plasmids encoding the corresponding Gα protein were co-transfected instead of mock. Gα16 is naturally promiscuous and stimulates the phospholipase C (PLC) pathway leading to IP production, while the exchange of the C-terminal four amino acids of Gαq for the corresponding residues of Gαi1 in the chimeric GαΔ6qi4myr confers the ability to couple to Gi/o protein-preferring receptors but still stimulate PLC, thus specifically redirecting downstream cellular signaling. 16 h post transfection, the cells were seeded into white 384-well plates at a density of 20,000 cells/well. Media was removed 24 h later and the cells were incubated with the indicated concentration of peptides for 1 h in HBSS + 20 mM LiCl. IP accumulation was measured with the HTRF-based IP-One Gq kit (Cisbio) on a microplate reader (Tecan Spark).
(§2) For in vitro activation, data is presented as mean ± SEM of at least three independent experiments conducted in technical triplicate. […] For the C. elegans NPRs, we considered the strongest response elicited by any of the peptides downstream of a particular receptor as the receptor’s maximal signal. This may or may not be the biological maximum that can be reached by the ‘true’ endogenous agonist. For the human receptors, the response to the established endogenous agonist reflected the maximal signal.

[2] = system: mock (empty vector) transfected HEK293 cells; test: IP accumulation assay, negative control: empty vector (mock) instead of the receptor; type: cell-based, Homo sapiens; conditions: 1 h, HBSS + 20 mM LiCl, HEK293 with empty vector instead of receptor (negative control), HTRF IP-One, mean of >=3 independent experiments
Method: as §1, §2

[3] = target: T2, NPR-1 (Caenorhabditis elegans, UniProt Q18534); test: IP accumulation assay, chimeric GαΔ6qi4myr, NPR-1; type: cell-based, C. elegans; parameters: expressed in transfected cells; host or cells: HEK293; conditions: 1 h, HBSS + 20 mM LiCl, HEK293 receptor + GαΔ6qi4myr, HTRF IP-One
T2 sequence (Q18534 1-457): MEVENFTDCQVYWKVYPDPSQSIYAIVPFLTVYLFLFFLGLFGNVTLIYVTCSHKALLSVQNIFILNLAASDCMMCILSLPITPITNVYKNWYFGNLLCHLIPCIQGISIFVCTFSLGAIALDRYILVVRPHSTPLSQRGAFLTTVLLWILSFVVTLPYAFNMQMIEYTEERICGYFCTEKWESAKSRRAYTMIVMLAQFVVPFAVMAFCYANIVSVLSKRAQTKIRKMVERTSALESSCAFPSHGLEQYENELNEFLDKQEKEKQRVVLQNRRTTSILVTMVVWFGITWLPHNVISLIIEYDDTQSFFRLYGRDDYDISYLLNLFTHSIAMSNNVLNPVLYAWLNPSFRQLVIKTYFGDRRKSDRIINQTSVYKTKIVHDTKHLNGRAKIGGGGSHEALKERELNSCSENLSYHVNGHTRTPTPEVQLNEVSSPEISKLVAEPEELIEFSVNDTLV
Method: as §1, §2

[4] = target: T3, Y5R (Homo sapiens, UniProt Q15761); test: cAMP reporter gene assay, Gi/o, Y5R; type: cell-based; conditions: for cAMP assay (Gi/o), Y5R: 4 h, lower = higher Gi/o activity, transfected HEK293, CRE-luciferase, mean of >=3 independent experiments; for Gi (Gs) [x-fold of forskolin], Y5R, mean: inhibition of cAMP production induced by 1 µM forskolin (set to 1.00), transiently transfected HEK293 cells, mean of at least three independent experiments
T3 construct: expressed in transfected cells; host or cells: HEK293, transient
T3 sequence (Q15761 1-445): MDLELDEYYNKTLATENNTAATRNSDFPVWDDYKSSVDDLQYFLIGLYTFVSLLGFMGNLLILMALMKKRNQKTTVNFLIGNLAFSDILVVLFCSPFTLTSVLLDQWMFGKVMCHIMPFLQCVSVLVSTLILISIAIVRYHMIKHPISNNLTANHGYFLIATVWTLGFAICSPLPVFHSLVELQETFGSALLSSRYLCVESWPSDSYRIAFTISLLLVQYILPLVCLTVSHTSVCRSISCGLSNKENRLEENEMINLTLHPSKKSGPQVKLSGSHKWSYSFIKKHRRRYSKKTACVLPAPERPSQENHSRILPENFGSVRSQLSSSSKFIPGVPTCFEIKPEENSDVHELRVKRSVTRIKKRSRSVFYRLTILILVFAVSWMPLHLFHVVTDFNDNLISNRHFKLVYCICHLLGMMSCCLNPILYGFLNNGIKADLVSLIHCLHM
Method: (§3) Activation of Gs and Gi/o was assessed with a cAMP reporter gene assay. HEK293 cells grown to 70–80% confluency in 6-well plates were transiently co-transfected with vectors encoding the receptor and the cAMP reporter gene plasmid pGL4.29 [luc2P/CRE/Hygro] (Promega; 4 μg total, 1:1 ratio) using Metafectene Pro (3 μl/μg DNA; Biontex) following the manufacturer’s instructions. 16 h post transfection, the cells were seeded into white 384-well plates at a density of 20,000 cells/well. On the next day, the medium was removed and the cells were stimulated with 20 μl of peptide solution (or forskolin as positive control) in serum-free DMEM for 4 h. For measuring Gi/o activity, the peptide solutions additionally contained 1 μM forskolin to elevate cellular cAMP levels. After incubation, the luciferase substrate OneGlo in lysis buffer (Promega) was added and the luminescence was measured in a microplate reader Tecan Spark (Tecan). Data were analyzed with GraphPad Prism 5.03 and are shown as fold of basal or fold of forskolin in case of Gαi/o activity.
as §2

[5] = target: T4, NPFF1R (Homo sapiens, UniProt Q9GZQ6); test: cAMP reporter gene assay, Gi/o, NPFF1R; type: cell-based; conditions: for cAMP assay (Gi/o), NPFF1R: 4 h, lower = higher Gi/o activity, transfected HEK293, CRE-luciferase, mean of >=3 independent experiments; for Gi (Gs) [x-fold of forskolin], NPFF1R, mean: inhibition of cAMP production induced by 1 µM forskolin (set to 1.00), transiently transfected HEK293 cells, mean of at least three independent experiments
T4 construct: expressed in transfected cells; host or cells: HEK293, transient
T4 sequence (Q9GZQ6 whole entry): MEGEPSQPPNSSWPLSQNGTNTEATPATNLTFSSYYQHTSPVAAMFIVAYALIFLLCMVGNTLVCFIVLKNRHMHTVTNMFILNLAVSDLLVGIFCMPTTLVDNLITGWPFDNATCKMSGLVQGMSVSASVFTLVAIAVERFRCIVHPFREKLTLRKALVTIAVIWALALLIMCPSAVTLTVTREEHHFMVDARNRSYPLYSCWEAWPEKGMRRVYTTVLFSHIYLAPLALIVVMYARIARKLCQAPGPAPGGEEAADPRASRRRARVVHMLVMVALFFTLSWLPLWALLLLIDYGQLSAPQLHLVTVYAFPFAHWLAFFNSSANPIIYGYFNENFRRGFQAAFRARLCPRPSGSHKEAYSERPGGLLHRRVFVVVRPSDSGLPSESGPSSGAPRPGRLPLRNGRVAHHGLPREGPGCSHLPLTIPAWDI
Method: as §3, §2

[6] = 0.1 µM peptide (Table S8), mean of >=3 independent experiments
[7] = 10 µM peptide, mean of >=3 independent experiments (Tables S5 and S8)
[8] = 0.1 µM peptide + 1 µM forskolin (set to 1.00)
[9] = 10 µM peptide + 1 µM forskolin (set to 1.00)
[10] = 0.1 nM peptide (Table S5), mean of >=3 independent experiments

Substance | IP accumulation with GαΔ6qi4myr, NPR-4b [1, 6] | IP accumulation with GαΔ6qi4myr, NPR-4b [1, 7] | IP accumulation, mock ([2]; 0.1 µM peptide) | IP accumulation, mock ([2]; 10 µM peptide) | IP accumulation with GαΔ6qi4myr, NPR-1 [3, 6] | IP accumulation with GαΔ6qi4myr, NPR-1 [3, 7] | further results
ASPSFIRF-NH2 [FLP-4-2, C. elegans FMRFamide-like peptide, C-terminally amidated, synthesized by SPPS] | 4.71 x-fold of basal | 12.66 x-fold of basal | 0.75 x-fold of basal | 0.75 x-fold of basal | 0.83 x-fold of basal | 0.89 x-fold of basal | –
AGSDPNFLRF-NH2 [FLP-1-2, C. elegans FMRFamide-like peptide, C-terminally amidated, synthesized by SPPS] | 2.48 x-fold of basal | 8.55 x-fold of basal | 4.14 x-fold of basal | 1.78 x-fold of basal | 1.03 x-fold of basal | 0.98 x-fold of basal | –
NPENDTPFGTMRF-NH2 [FLP-3-4, C. elegans FMRFamide-like peptide, C-terminally amidated, synthesized by SPPS] | 4.77 x-fold of basal | 11.46 x-fold of basal | 1.08 x-fold of basal | 1.16 x-fold of basal | 0.98 x-fold of basal | 0.94 x-fold of basal | –
EASAFGDIIGELKGKGLGGRMRF-NH2 [FLP-27, NPY-like C. elegans FLP with C-terminal RxRF/Ya signature] | – | – | – | – | – | – | cAMP assay (Gi/o), Y5R [4, 8]: 1.07 x-fold of forskolin; cAMP assay (Gi/o), Y5R [4, 9]: 0.96 x-fold of forskolin; cAMP assay (Gi/o), NPFF1R [5, 8]: 0.76 x-fold of forskolin; cAMP assay (Gi/o), NPFF1R [5, 9]: 0.26 x-fold of forskolin
GLGPRPLAF-NH2 [[R8A]FLP-21, R8A control peptide of FLP-21, penultimate arginine exchanged for an alanine] | – | – | – | – | – | – | Gi (Gs) [x-fold of forskolin], Y5R, mean ([4]; 0.1 µM peptide): 0.84 x-fold of forskolin; Gi (Gs) [x-fold of forskolin], Y5R, mean ([4]; 10 µM peptide): 0.87 x-fold of forskolin; Gi (Gs) [x-fold of forskolin], NPFF1R, mean ([5]; 0.1 µM peptide): 1.03 x-fold of forskolin; Gi (Gs) [x-fold of forskolin], NPFF1R, mean ([5]; 10 µM peptide): 0.66 x-fold of forskolin
RGPSGPLAF-NH2 [[R8A]FLP-15-2] | – | – | – | – | – | – | Gi (Gs) [x-fold of forskolin], Y5R, mean ([4]; 0.1 µM peptide): 0.89 x-fold of forskolin; Gi (Gs) [x-fold of forskolin], Y5R, mean ([4]; 10 µM peptide): 0.91 x-fold of forskolin; Gi (Gs) [x-fold of forskolin], NPFF1R, mean ([5]; 0.1 µM peptide): 0.91 x-fold of forskolin; Gi (Gs) [x-fold of forskolin], NPFF1R, mean ([5]; 10 µM peptide): 0.71 x-fold of forskolin
APKPKFIRF-NH2 [FLP-5-1, C. elegans FMRFamide-like peptide, C-terminally amidated, synthesized by SPPS] | 2.00 x-fold of basal | 5.53 x-fold of basal | 1.08 x-fold of basal | 1.01 x-fold of basal | 0.88 x-fold of basal | 0.93 x-fold of basal | IP assay endog. Gαq + GαΔ6qi4myr, NPR-4b [1, 10]: 2.00 x-fold of basal; IP assay endog. Gαq + GαΔ6qi4myr, NPR-1 [3, 10]: 0.88 x-fold of basal
APLEGFEDMSGFLRTIDGIQKPRF-NH2 [FLP-33, NPY-like C. elegans FLP with C-terminal RxRF/Ya signature] | – | – | – | – | – | – | cAMP assay (Gi/o), Y5R [4, 8]: 0.94 x-fold of forskolin; cAMP assay (Gi/o), Y5R [4, 9]: 0.99 x-fold of forskolin; cAMP assay (Gi/o), NPFF1R [5, 8]: 0.81 x-fold of forskolin; cAMP assay (Gi/o), NPFF1R [5, 9]: 0.47 x-fold of forskolin
